Columns and labels:
[1] = biological target: T1, chitin synthase 1 of Candida albicans chs2 Δ chs 3 Δ (Candida albicans, UniProt P23316); experiment: In vitro enzyme assay for chitin synthase 1 of Candida albicans (enzyme 1); format: biochemical; conditions: relative to polyoxin D (50% inhibitory activity = value 5)
T1 construct: Crude enzyme was prepared using the Candida albicans chs2 Δ chs 3 Δ mutant; endogenous in cells; host or cells: Candida albicans chs2Δ/chs2Δ chs3Δ/chs3Δ mutant; 130,000 x g membrane pellet
How it was run: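 Crude membrane enzyme from the C. albicans chs2Δ chs3Δ strain was trypsin-activated for 15 min at 30 °C. Reaction: 32 mM Tris-HCl pH 7.5, 2 mM cobalt acetate, 1.1 mM UDP-[14C]GlcNAc, 90 min at 30 °C; TCA-insoluble radioactivity counted. Scored 1–8 by relative polyoxin D concentration (5 = equal).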

[2] = biological target: T2, chitin synthase 2 of Saccharomyces cerevisiae ECY38-38A(pAS6) (Saccharomyces cerevisiae, UniProt P14180); experiment: In vitro enzyme assay for chitin synthase 2 of Saccharomyces cerevisiae (enzyme 2); format: biochemical; conditions: relative to polyoxin D (50% inhibitory activity = value 5)
T2 construct: made in house; host or cells: Saccharomyces cerevisiae ECY38-38A (chs1-23 chs2::LEU2 cal1/csd2) carrying plasmid pAS6, grown in galactose medium; 130,000 x g membrane pellet
How it was run: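 Crude membrane chitin synthase 2 came from S. cerevisiae ECY38-38A(pAS6), expressing only CHS2, and was trypsin-activated (15 min, 30 °C) then trypsin-inhibited. The reaction ran in 32 mM Tris-HCl pH 7.5, 2 mM cobalt acetate, 1.1 mM UDP-[14C]-GlcNAc, 90 min at 30 °C. TCA-precipitated product was counted by scintillation; scores 1–8 reflect concentration relative to polyoxin D's 50% inhibition (score 5).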

[3] = system: Aspergillus flavus ATCC 64025; experiment: In vitro antifungal activity (MIC), NCCLS method; format: cell-based; conditions: 48 hours
How it was run: (§1)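 Test samples were serially diluted two-fold, then inoculated with fungus to a final cell density of 5×10^2 to 2.5×10^3 cell/mL, following the NCCLS method. Plates were cultured for 48 hours and the minimum inhibitory concentration recorded.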

[4] = system: Aspergillus fumigatus ATCC 16424; experiment: In vitro antifungal activity (MIC), NCCLS method; format: cell-based; conditions: 48 hours
How it was run: as §1

[5] = system: Aspergillus terreus ATCC 46941; experiment: In vitro antifungal activity (MIC), NCCLS method; format: cell-based; conditions: 48 hours
How it was run: as §1

[6] = system: Candida albicans A207 (clinical isolate); experiment: In vitro antifungal activity (MIC), NCCLS method; format: cell-based; conditions: 48 hours
How it was run: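 Two-fold dilutions, final inoculum 5×10^2–2.5×10^3 cell/mL, NCCLS protocol; 48 h culture for these strains. MIC = minimum inhibitory concentration.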

[7] = system: Candida albicans ATCC 10231; experiment: In vitro antifungal activity (MIC), NCCLS method; format: cell-based; conditions: 48 hours
How it was run: as §1

[8] = system: Candida glabrata ATCC 48435; experiment: In vitro antifungal activity (MIC), NCCLS method; format: cell-based; conditions: Candida glabrata ATCC 48435; 48 hours
How it was run: as §1

Candida krusei ATCC 6258 = experiment: In vitro antifungal activity (MIC), NCCLS method; format: cell-based; conditions: 48 hours
How it was run: as §1

[9] = system: Candida lusitaniae ATCC 42720; experiment: In vitro antifungal activity (MIC), NCCLS method; format: cell-based; conditions: 48 hours
How it was run: as §1

[10] = system: Candida parapsilosis ATCC 34136; experiment: In vitro antifungal activity (MIC), NCCLS method; format: cell-based; conditions: Candida parapsilosis ATCC 34136; 48 hours
How it was run: as §1

[11] = system: Candida tropicalis ATCC 13803; experiment: In vitro antifungal activity (MIC), NCCLS method; format: cell-based; conditions: 48 hours
How it was run: as §1

[12] = system: Cryptococcus neoformans ATCC 36556; experiment: In vitro antifungal activity (MIC), NCCLS method; format: cell-based; conditions: RPMI 1640 medium, 72 hours
How it was run: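 Broth microdilution per NCCLS: two-fold serial dilutions of test compound inoculated with fungal suspension at a final 5×10^2 to 2.5×10^3 cell/mL. Strains other than Cryptococcus neoformans were incubated 48 hours before MIC reading.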

[13] = system: Mucor ramosissimus ATCC 90286; experiment: In vitro antifungal activity (MIC), NCCLS method; format: cell-based; conditions: 48 hours
How it was run: as §1

T1 sequence (P23316 whole entry, stated change not applied): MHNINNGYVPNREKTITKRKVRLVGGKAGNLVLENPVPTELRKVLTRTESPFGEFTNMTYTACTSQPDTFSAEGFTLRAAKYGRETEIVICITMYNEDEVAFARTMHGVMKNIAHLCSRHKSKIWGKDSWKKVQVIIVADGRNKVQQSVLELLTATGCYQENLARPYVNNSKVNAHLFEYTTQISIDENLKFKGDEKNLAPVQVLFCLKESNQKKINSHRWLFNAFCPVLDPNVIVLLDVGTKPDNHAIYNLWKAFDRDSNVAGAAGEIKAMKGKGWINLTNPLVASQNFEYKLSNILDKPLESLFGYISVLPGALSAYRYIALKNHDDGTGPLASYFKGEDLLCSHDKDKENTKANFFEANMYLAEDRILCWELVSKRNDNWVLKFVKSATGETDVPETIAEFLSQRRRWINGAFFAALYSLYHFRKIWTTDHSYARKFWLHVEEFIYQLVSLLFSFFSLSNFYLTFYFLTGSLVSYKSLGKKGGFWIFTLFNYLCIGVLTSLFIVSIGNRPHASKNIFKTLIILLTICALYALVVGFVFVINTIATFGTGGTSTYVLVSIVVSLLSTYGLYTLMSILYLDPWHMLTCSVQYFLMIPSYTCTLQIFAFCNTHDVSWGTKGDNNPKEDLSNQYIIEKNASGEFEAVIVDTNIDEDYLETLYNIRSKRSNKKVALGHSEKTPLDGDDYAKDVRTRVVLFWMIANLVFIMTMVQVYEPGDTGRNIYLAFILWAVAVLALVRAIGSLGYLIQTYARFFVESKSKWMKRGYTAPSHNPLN
T2 sequence (P14180 whole entry): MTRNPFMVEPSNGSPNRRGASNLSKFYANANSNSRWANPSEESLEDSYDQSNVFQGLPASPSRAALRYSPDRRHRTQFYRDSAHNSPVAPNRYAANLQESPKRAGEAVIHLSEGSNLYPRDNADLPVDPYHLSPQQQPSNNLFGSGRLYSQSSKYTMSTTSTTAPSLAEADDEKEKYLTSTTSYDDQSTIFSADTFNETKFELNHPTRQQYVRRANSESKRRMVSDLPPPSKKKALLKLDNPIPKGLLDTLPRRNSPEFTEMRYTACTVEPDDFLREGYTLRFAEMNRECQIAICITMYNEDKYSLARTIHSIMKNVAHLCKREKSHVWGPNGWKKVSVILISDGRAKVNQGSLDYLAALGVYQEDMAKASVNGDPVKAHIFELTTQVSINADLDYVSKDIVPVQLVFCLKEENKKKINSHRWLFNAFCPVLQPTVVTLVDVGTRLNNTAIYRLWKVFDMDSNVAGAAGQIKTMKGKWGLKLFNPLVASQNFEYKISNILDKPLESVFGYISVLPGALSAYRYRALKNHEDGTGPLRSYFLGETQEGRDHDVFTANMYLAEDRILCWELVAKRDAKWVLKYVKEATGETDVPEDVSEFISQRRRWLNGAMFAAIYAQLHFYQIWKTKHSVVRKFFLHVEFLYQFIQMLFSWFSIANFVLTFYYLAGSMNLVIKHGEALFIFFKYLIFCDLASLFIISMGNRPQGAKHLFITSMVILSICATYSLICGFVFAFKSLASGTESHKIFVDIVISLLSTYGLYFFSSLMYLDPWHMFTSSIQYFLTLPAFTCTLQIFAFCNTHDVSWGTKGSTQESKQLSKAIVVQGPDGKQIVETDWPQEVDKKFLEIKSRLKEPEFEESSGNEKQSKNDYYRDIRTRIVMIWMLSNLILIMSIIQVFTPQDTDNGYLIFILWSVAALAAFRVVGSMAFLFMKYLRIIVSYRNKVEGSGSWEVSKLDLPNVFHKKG

Substance	Relative activity Enzyme 1 [1]	Relative activity Enzyme 2 [2]	MIC (minimum inhibitory concentration) [3] [µg/mL]	MIC (minimum inhibitory concentration) [4] [µg/mL]	MIC (minimum inhibitory concentration) [5] [µg/mL]	MIC (minimum inhibitory concentration) [6] [µg/mL]	MIC (minimum inhibitory concentration) [7] [µg/mL]	MIC (minimum inhibitory concentration) [8] [µg/mL]	MIC (minimum inhibitory concentration) (Candida krusei ATCC 6258) [µg/mL]	MIC (minimum inhibitory concentration) [9] [µg/mL]	MIC (minimum inhibitory concentration) [10] [µg/mL]	MIC (minimum inhibitory concentration) [11] [µg/mL]	MIC (minimum inhibitory concentration) [12] [µg/mL]	MIC (minimum inhibitory concentration) [13] [µg/mL]
13-(4-Isopropylbenzyl)-9-O-(3-hydroxypropyl)berberrubine chloride [Compound No. 53]	4 (Compounds having the inhibitory activity at 2-fold, 4-fold, 8-fold and 16-fold higher concentrations than that of polyoxin D were given the values of 4, 3, 2 and 1, respectively)	6 (compounds having the inhibitory activity at ½, ¼ and ⅛ lower concentrations than that of polyoxin D were given the values of 6, 7 and 8, respectively)	8	2	8	0.5	0.5	2	1	2	2	0.5	1	4
13-(4-tert-Butylbenzyl)-9-O-octylberberrubine chloride [Compound No. 42]	3 (Compounds having the inhibitory activity at 2-fold, 4-fold, 8-fold and 16-fold higher concentrations than that of polyoxin D were given the values of 4, 3, 2 and 1, respectively)	6 (compounds having the inhibitory activity at ½, ¼ and ⅛ lower concentrations than that of polyoxin D were given the values of 6, 7 and 8, respectively)	4	2	4	0.25	0.25	1	1	0.5	1	0.125	0.5	2
13-(4-Isopropylbenzyl)-9-O-(6-chlorohexyl)berberrubine chloride [Compound No. 54]	2 (Compounds having the inhibitory activity at 2-fold, 4-fold, 8-fold and 16-fold higher concentrations than that of polyoxin D were given the values of 4, 3, 2 and 1, respectively)	6 (compounds having the inhibitory activity at ½, ¼ and ⅛ lower concentrations than that of polyoxin D were given the values of 6, 7 and 8, respectively)	8	2	8	0.5	0.5	2	1	2	2	0.5	1	4
13-(4-tert-Butylbenzyl)-9-O-(3-hydroxypropyl)berberrubine chloride [Compound No. 43]	4 (Compounds having the inhibitory activity at 2-fold, 4-fold, 8-fold and 16-fold higher concentrations than that of polyoxin D were given the values of 4, 3, 2 and 1, respectively)	7 (compounds having the inhibitory activity at ½, ¼ and ⅛ lower concentrations than that of polyoxin D were given the values of 6, 7 and 8, respectively)	8	2	8	0.5	0.5	2	1	2	2	0.5	1	4
13-(4-Isopropylbenzyl)-9-O-(4-tert-butylbenzyl)berberrubine bromide [Compound No. 25]	2 (Compounds having the inhibitory activity at 2-fold, 4-fold, 8-fold and 16-fold higher concentrations than that of polyoxin D were given the values of 4, 3, 2 and 1, respectively)	5 (A compound having the same inhibitory activity as that of polyoxin D at the same concentration was given the value 5)	8	4	8	1	1	4	4	4	8	1	2	8
13-(4-Isopropylbenzyl)-9-O-octylberberrubine iodide [Compound No. 20]	3 (Compounds having the inhibitory activity at 2-fold, 4-fold, 8-fold and 16-fold higher concentrations than that of polyoxin D were given the values of 4, 3, 2 and 1, respectively)	5 (A compound having the same inhibitory activity as that of polyoxin D at the same concentration was given the value 5)	4	2	4	0.25	0.25	2	1	0.5	2	0.125	1	2
13-(4-Isopropylbenzyl)-9-O-(4-isopropylbenzyl)berberrubine chloride [Compound No. 58]	2 (Compounds having the inhibitory activity at 2-fold, 4-fold, 8-fold and 16-fold higher concentrations than that of polyoxin D were given the values of 4, 3, 2 and 1, respectively)	5 (A compound having the same inhibitory activity as that of polyoxin D at the same concentration was given the value 5)	8	4	8	1	1	2	2	4	8	1	2	8
13-(4-tert-Butylbenzyl)-9-O-(4-isopropylbenzyl)berberrubine bromide [Compound No. 16]	3 (Compounds having the inhibitory activity at 2-fold, 4-fold, 8-fold and 16-fold higher concentrations than that of polyoxin D were given the values of 4, 3, 2 and 1, respectively)	5 (A compound having the same inhibitory activity as that of polyoxin D at the same concentration was given the value 5)	8	4	8	1	1	2	2	4	8	1	2	8
